Experimental data as given in patent publication US6589762B1, “Calcafluor screen for chitin biosynthesis inhibitors” (priority 1993, dated 2003).

Key:
Aspergillus nidulans = assay: Calcofluor rescue with filamentous fungus instead of S. cerevisiae; type: cell-based; conditions: very high calcofluor concentrations
Source text: (§1) Attempts are made to replace S. cerevisiae with several species of filamentous fungi, including Neurospora crassa, Aspergillus nidulans, Botrytis cinerea, Pseudocercosporella herpotrichoides, but all the species respond differently from S. cerevisiae. N. crassa and A. nidulans require very high concentrations of calcofluor to inhibit growth.

Neurospora crassa = assay: as above; type: cell-based; conditions: very high calcofluor concentrations
Source text: as §1

Chs3 = molecular target: T1, Chs3 (Saccharomyces cerevisiae, UniProt P29465); assay: In vitro chitin synthase enzyme assay (incorporation of UDP-14C-N-acetylglucosamine); type: biochemical
T1 construct: To assay Chs3 activity, membranes from cells lacking Chs1 and, preferably, Chs2 are prepared; endogenous in cells; host or cells: S. cerevisiae strains ECY36-3C, JW17-11/1A/FOA or SSY640-10A (crude membrane fraction)
T1 sequence (P34226 1-693): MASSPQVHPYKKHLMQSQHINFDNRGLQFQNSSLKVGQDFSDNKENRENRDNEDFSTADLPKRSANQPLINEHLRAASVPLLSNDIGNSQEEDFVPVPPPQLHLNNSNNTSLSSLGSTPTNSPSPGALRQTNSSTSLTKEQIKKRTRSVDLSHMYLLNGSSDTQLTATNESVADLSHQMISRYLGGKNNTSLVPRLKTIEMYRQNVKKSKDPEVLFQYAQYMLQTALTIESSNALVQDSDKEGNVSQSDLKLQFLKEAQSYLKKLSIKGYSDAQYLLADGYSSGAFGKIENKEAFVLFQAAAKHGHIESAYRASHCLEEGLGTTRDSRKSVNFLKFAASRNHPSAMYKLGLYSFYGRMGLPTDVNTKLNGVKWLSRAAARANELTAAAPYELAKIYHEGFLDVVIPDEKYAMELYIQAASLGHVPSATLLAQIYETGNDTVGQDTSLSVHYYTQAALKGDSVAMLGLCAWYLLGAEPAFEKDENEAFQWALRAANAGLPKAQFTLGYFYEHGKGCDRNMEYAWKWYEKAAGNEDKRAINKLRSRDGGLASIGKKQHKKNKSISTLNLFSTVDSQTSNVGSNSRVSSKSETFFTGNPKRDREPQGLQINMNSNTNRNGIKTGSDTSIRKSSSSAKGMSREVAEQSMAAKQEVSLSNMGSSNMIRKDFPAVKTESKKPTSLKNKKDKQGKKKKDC
T1 sequence (P29465 whole entry): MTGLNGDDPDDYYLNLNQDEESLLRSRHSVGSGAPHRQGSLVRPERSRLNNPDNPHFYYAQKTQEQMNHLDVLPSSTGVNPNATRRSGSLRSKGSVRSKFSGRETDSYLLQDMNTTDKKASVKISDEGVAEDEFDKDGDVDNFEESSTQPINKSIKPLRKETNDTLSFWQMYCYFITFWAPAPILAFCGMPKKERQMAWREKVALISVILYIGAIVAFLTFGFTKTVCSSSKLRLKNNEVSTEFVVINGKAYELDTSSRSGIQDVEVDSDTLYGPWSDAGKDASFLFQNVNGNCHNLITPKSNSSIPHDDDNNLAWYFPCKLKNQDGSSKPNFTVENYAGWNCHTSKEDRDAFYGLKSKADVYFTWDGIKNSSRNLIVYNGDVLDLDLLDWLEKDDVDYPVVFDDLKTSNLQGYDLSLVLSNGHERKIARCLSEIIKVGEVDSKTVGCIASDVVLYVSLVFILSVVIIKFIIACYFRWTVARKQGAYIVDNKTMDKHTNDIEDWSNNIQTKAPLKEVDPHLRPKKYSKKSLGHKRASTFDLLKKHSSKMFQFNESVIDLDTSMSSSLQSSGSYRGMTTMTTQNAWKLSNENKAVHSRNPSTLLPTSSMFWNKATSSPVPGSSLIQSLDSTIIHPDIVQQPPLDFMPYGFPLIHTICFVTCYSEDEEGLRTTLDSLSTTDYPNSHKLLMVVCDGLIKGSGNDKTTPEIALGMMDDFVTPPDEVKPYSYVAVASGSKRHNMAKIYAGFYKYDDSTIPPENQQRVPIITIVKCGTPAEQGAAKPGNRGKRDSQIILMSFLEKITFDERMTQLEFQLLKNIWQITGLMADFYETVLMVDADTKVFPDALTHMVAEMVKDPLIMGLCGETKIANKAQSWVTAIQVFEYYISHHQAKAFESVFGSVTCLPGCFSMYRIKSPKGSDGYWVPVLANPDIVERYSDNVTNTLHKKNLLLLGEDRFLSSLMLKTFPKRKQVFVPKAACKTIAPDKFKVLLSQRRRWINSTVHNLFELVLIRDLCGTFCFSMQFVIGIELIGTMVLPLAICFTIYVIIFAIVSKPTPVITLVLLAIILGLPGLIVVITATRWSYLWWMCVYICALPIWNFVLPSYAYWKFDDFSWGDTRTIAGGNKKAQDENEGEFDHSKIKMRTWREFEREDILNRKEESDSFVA
Procedure: In Vitro Secondary Screens. These enzyme assays detect inhibition of individual chitin synthase isozymes Chs1, Chs2, and Chs3 by monitoring the incorporation of radioactive chitin precursor uridine diphospho-N-acetyl glucosamine into acid precipitable counts (i.e., chitin).
To assay Chs3 activity, membranes from cells lacking Chs1 and, preferably, Chs2 are prepared by a modification of the method of Orlean, P. cited above. Strain ECY36-3C, JW17-11/1A/FOA or SSY640-10A are inoculated into YEPD, and the culture is shaken at 30° C. Cells are harvested while still growing exponentially, e.g., at O.D.600 of ˜0.4 as measured in a Guilford Response™ spectrophotometer, washed once in 50 mM Tris-HCl, pH 7.5, containing 0.01 mM EDTA and 1 mM DTT (1,4-dithiothreitol), and resuspended in about 3 volumes of this buffer. Glass beads of about 200 to 300 micron diameter are added to just below the meniscus of the suspension, and cells are shaken by vortexing or in a Bead-Beater™ until lysis occurs, which is monitored microscopically. During this procedure, the cell suspension is kept below 10° C. by cooling in ice. The extract is collected, the glass beads are washed with the same buffer, and the wash is added to the extract. The volume is adjusted to about 20 original volumes with the same buffer.
The cell walls and debris are removed by a 10 minute centrifugation at about 3000×g. The samples are centriuged at 100,000×g for 40 minutes at 4° C. The membrane pellets are resuspended in about one original volume 50 mM Tris-HCl, pH 7.5 containing 0.01 mM EDTA which may contain 33% glycerol, and subjected to Dounce homogenization.
Ten μl of membranes are incubated with shaking in the presence of putative inhibitors in a standard 50 μl assay mixture containing 1 mM uridine diphospho-(^14C)-N-acetyl-glucosamine (400,000 cpm/μmole), 40 mM N-acetylglucosamine, 50 mM Tris-HCl, pH 7.5, and 5 mM MgCl2 at 25° C. The reaction is stopped after 90 minutes by addition of 10% trichloroacetic acid, and the amount of product quantified by filtration and scintillation counting.

Botrytis cinerea = assay: Calcofluor rescue with filamentous fungus instead of S. cerevisiae; type: cell-based; conditions: does not grow in the media
Source text: as §1

[1] = system: Pseudocercosporella herpotrichoides; assay: as above; type: cell-based; conditions: does not grow in the media
Source text: as §1

[2] = system: selected phytopathogenic fungi (Pseudocercosporella herpotrichoides, Rhizoctonia solani, Fusarium oxysporum); assay: In vitro fungicide discovery screen (growth in nutrient agar); type: cell-based
Procedure: Standard in vitro and in vivo fungicide discovery screens are employed as tertiary tests to prioritize actives from the calcofluor rescue screen and the secondary screens. […] These include fungi causing wheat eyespot (Pseudocercosporella herpotrichoides), rice sheath blight (Rhizoctonia solani) and damping off (Fusarium oxysporum); all synthesize chitin-containing cell walls. High potency fungicides are active against these species in the 10 ppm range (10 μg/ml), while nikkomycin Z can be detected at ˜70 μg/ml in the calcofluor rescue assay if 30 μl volumes are tested in welled plates.

[3] = system: Saccharomyces cerevisiae strain Y294; assay: Calcofluor rescue screen (disk or well diffusion); type: cell-based; conditions: for activity in the calcofluor rescue screen (turbid zone of growth): disk diffusion assay, 20 μg/disk, 30° C., two days
Procedure: A preferred method comprises adding a test sample to a Saccharomyces cerevisiae culture containing calcofluor white or a calcofluor white derivative. The test sample is introduced to a disk or a well on a culture plate in a standard diffusion assay using solidified media, or introduced into one of a series of equivalent tissue culture tubes or bottles in a standard turbidity assay using liquid media. The culture is incubated for such time under such conditions sufficient to observe yeast cell growth inhibition in a corresponding culture or culture plate area containing calcofluor white but no test sample. The extent of growth of the culture containing or surrounding the test sample is compared with the extent of growth in the culture or culture area containing no test sample. The presence of chitin synthesis inhibition is determined by observing whether growth in the presence of test sample exceeds growth in its absence. In a culture plate, this is a turbid zone of growth surrounding the test sample. In a culture tube series, this is enhanced turbidity.
autoclaving at 20 lbs for 15 min. Strain Y294 having genotype MATα leu2-3,112 ura3-52 his3Δ trp1 GAL+[CIR+] inoculated into this liquid media and grown overnight, an OD600 of ˜5 or greater, while being shaken at 30° C.
The plates are poured and test samples are placed on the plates. A ¼″ disk containing […] of nikkomycin Z is used as a positive control. The plates are incubated at 30° C. for two days and then examined for activity. Actives produce a turbid zone surrounding the test sample.
All compounds are tested by disk diffusion assay using the method of this invention at a rate of 20 μg/disk.

A.T.C.C. strain S288c = assay: Comparison growth inhibition screen with strain S288c; type: cell-based, Saccharomyces cerevisiae; conditions: same conditions at the same levels as Table III
Chs1 = Chs1 (Saccharomyces cerevisiae, UniProt P08004); conditions: Cabib, Antimicrob. Agents Chemother. 35: 170-173 (1991); cited from earlier work
Sequence of Chs1 (P08004 whole entry): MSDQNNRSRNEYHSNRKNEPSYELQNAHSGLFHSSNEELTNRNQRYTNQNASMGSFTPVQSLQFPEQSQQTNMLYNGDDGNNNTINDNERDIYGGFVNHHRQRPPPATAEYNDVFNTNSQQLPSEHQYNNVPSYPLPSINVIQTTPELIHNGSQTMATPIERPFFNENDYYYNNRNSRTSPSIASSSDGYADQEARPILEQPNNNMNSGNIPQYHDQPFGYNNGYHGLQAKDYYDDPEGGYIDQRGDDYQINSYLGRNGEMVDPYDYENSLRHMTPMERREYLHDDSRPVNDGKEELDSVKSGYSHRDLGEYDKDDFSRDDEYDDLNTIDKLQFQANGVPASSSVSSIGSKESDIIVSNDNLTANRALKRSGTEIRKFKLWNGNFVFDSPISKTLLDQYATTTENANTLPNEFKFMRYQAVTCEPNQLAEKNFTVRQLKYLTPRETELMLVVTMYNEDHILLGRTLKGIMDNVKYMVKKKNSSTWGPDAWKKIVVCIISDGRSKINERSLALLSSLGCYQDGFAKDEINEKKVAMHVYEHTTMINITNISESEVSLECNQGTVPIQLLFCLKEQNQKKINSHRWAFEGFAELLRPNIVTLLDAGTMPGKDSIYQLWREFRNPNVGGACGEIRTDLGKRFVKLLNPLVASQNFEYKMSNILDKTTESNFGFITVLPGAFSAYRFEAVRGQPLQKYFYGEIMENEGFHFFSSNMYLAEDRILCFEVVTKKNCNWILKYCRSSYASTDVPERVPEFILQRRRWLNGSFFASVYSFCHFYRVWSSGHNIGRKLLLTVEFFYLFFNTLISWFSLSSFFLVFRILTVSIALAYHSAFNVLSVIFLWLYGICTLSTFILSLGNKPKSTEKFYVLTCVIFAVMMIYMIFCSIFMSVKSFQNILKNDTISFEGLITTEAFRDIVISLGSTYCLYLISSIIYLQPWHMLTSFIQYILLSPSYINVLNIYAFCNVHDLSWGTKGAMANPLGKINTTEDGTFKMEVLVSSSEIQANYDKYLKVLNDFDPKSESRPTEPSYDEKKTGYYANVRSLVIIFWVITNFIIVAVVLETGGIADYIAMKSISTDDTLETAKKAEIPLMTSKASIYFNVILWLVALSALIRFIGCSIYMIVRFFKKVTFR

[4] = system: strain ECY36-3D (relies on chitin synthase isozyme 2); assay: In vivo secondary screen, growth of chitin synthase mutant yeast; type: cell-based, Saccharomyces cerevisiae; conditions: for growth of strain ECY36-3D (in words): strain producing only Chs2
Source text: (§2) One type of calcofluor rescue secondary screen is an in vivo test that assays the effect of compounds on the growth of chitin synthase mutant yeast strains that rely on a single chitin synthase isozyme for survival. A number of these strains have been described, such as the strains that rely on chitin synthase isozymes 2 or 3 described by Shaw, J. A., et al. (J. Cell Biol. 114: 111-123 (1991)) and similar strains described in the Examples section below. In this type of secondary screening test, the test sample added to and incubated in a culture of a mutant yeast strain producing only chitin synthase 2 or 3 (denoted, respectively, Chs2 and Chs3) for such time under such conditions sufficient to observe growth in a corresponding culture containing no test sample. A comparison of the extent of growth in the culture containing test sample with growth in its absence is then made. Inhibition of growth in the presence of test sample indicates inhibition of synthase isozyme produced by the strain. Any type of growth assessment may be employed but, as in the primary calcofluor rescue screen, preferred cultures in the secondary screen are solid, with test samples applied to a disk or well, so that cell growth can be easily determined by visual inspection.
(§3) Especially preferred in vivo secondary screens employ a pair of genetically related strains, one producing one isozyme, e.g., Chs2, and the other producing a different isozyme, e.g., Chs3. Using pairs allows for the simultaneous determination that culture conditions are appropriate for growth in the absence of inhibition and the identification of which isozyme may be affected by inhibition. The pairs, for example, include the ECY36-3C and ECY36-3D strains described by Shaw, cited above, that produce only Chs3 and Chs 2, respectively, and similar pairs such as SSY640-10A (containing only Chs3) and SSY-638-3B (containing only Chs 2) described in the Examples below. […] In a similar manner, a comparison of differential effects observed in the growth of strain pairs in the presence of a test sample allows for the putative identification of which isozyme is affected by the sample.
(§4) In Vivo Secondary Screens. The in vivo calcofluor rescue secondary screens assay the differential effect of compounds on the growth of two pairs of yeast strains. Each strain in the pairs, denoted ECY36-3C and ECY36-3D and SSY640-10A and SSY638-3B, is a chitin synthase mutant that relies on the expression of a single chitin synthase isozyme for its survival.
(§5) Strains ECY36-3C and ECY36-3D are described by Shaw, J. A., et al., cited above. ECY36-3C has the genotype MATa, chs1-23, chs2::LEU2, ura3-52, leu2-3,112, trp1-1 and ECY36-3D has the genotype MATa, chs1-23, ca1^R1 (chs3^−), ura3-52, leu2-3,112, trp1-1. Both strains are segregants from crossing strain ECY33-18A (Mata, chs1-23, ca1^R1, ura3-52, leu2-3,112, trp1-1) and ECY19 Δ22 2-5B (MATα, chs1-23, chs2::LEU2, ura3-52, leu2-3,112, trp1-1) using standard methodology. ECY36-3C relies on the expression of chitin synthase isozyme 3 for survival, and ECY36-3D relies on chitin synthase isozyme 2 (Chs2).
(§6) Strains ECY36-3C and ECY36-3D are inoculated in SD medium containing nutritional supplements appropriate to strain growth, e.g., containing about 0.01% (w/v) each of uracil, adenine sulfate, leucine, tryptophan, histidine, and lysine. When the cultures reach stationary phase (typically after 24 hours), they are used immediately or stored at 4° C. for up to a week before use. The cultures are diluted 1/100 into YEPD medium containing 2% agar which has been maintained at ˜50° C., immediately poured into petri dishes, and allowed to cool. Test compounds are applied to cellulose filter disks as described in Example 1 above (e.g., nikkomycin Z, 4 μl of a 5 mg/ml solution), and the disks are applied to the agar. Plates are incubated at 30° C. overnight and growth inhibitory zones are measured around the disks after 24 hours. […]

[5] = system: strain ECY36-3C (relies on chitin synthase isozyme 3); assay: as above; type: cell-based, Saccharomyces cerevisiae; conditions: for growth of strain ECY36-3C (in words): strain producing only Chs3
Source text: as §2, §3, §4, §5, §6

[6] = system: strain SSY638-3B (containing only Chs2); assay: as above; type: cell-based, Saccharomyces cerevisiae
Source text: as §3, §4
(§7) Strain SSY640-10A has genotype chs1::HIS3, chs2::TRP1, his3, trp1, ade2, ade3, leu2, lys2, ura3 (possible cmk1Δ 1::HIS3). […]

[7] = system: strain SSY640-10A (containing only Chs3); assay: as above; type: cell-based, Saccharomyces cerevisiae
Source text: as §3, §4, §7

[8] = filter disk on YEPD agar, 24 hours, total applied: Nikkomycin Z 25 μg, Test Compound 1 45 μg, Test Compound 2 200 μg

CCC(CC)Nc1c([N+](=O)[O-])cc(C)c(C)c1[N+](=O)[O-] [prowl]
growth in calcofluor culture (Aspergillus nidulans): extensive growth
growth in calcofluor culture (Neurospora crassa): extensive growth

COC(=O)c1ccccc1S(=O)(=O)NC(=O)Nc1nc(C)cc(C)n1 [sulfometuron methyl]
growth in calcofluor culture (Aspergillus nidulans): extensive growth
growth in calcofluor culture (Neurospora crassa): extensive growth

Nc1nc(=O)[nH]cc1F [5-F-cytocine, 5-fluoro-cytosine]
growth in calcofluor culture (Aspergillus nidulans): extensive growth
growth in calcofluor culture (Neurospora crassa): extensive growth

NC(=O)OC[C@H](O)[C@@H](O)[C@H](N)C(=O)N[C@H](C(=O)O)[C@H]1O[C@@H](n2cc(C(=O)O)c(=O)[nH]c2=O)[C@H](O)[C@@H]1O [polyoxin D]
% Chs3 Activity (Chs3; 10 μM inhibitor): 100%
% Chs3 Activity (Chs3; 30 μM inhibitor): ˜40%
% Chs3 Activity (Chs3; 90 μM inhibitor): ˜16%
rescue from calcofluor (Botrytis cinerea): no rescue
rescue from calcofluor [1]: no rescue
growth in calcofluor culture (Aspergillus nidulans): extensive growth
growth in calcofluor culture (Neurospora crassa): extensive growth
activity against phytopathogenic fungi ([2]; 10 μg/ml concentration range, especially against Rhizoctonia): excellent activity
activity in the calcofluor rescue screen (turbid zone of growth) [3]: inactive

C[C@@H]([C@H](N)C(=O)N[C@H](C(=O)O)[C@H]1O[C@@H](n2ccc(=O)[nH]c2=O)[C@H](O)[C@@H]1O)[C@H](O)c1ccc(O)cn1 [nikkomycin Z]
% Chs3 Activity (Chs3; 1 μM inhibitor): ˜80%
% Chs3 Activity (Chs3; 2.5 μM inhibitor): ˜55%
% Chs3 Activity (Chs3; 5 μM inhibitor): ˜41%
chitin synthase isozyme affected (Chs3; secondary screening, Chs1, Chs2, Chs3 assays): act preferentially on the Chs3 isozyme
rescue from calcofluor (Botrytis cinerea): no rescue
rescue from calcofluor [1]: no rescue
growth in calcofluor culture (Aspergillus nidulans): extensive growth
growth in calcofluor culture (Neurospora crassa): extensive growth
growth inhibition of strain S288c (A.T.C.C. strain S288c): no inhibition
activity against phytopathogenic fungi ([2]; 25 μg/ml): weakly active
inhibition of Chs1 relative to Chs2 (Chs1): inhibit the activity of Chs1 to a much greater extent than Chs2
zone of inhibition, ECY36-3D [4, 8]: 0 mm
growth of strain ECY36-3D (in words) [4]: unaffected
growth of strain ECY36-3D (in words) ([4]; listed as Nikkomycin Z): does not inhibit growth
differential effect on Chs3-only versus Chs2-only strains ([5]; comparison of strain pairs): inhibits Chs3 to a significantly greater extent than Chs2
zone of inhibition, ECY36-3C [5, 8]: 21 mm
growth of strain ECY36-3C (in words) [5]: inhibited
growth of strain ECY36-3C (in words) ([5]; listed as Nikkomycin Z): inhibit the growth
growth of strain SSY638-3B (in words) [6]: unaffected
growth of strain SSY640-10A (in words) [7]: inhibited
concentration at which detected in the calcofluor rescue assay ([3]; 30 μl volumes tested in welled plates): ~70 µg/mL
activity in the calcofluor rescue screen (turbid zone of growth) [3]: active
